# Measurements reported in US20140349923A1, “Compositions And Methods For Treating Diabetes And/Or Obesity” (GlaxoSmithKline Intellectual Property (No. 2) Limited, priority 2012, published 2014).
# Test: Chronic obesity efficacy study in DIO mice, chow ingredients with or without exendin-4 AlbudAb
# Assay type: in vivo, DIO C57BL/6 mice
# Experimental: Male diet induced obese (DIO) C57BL/6 mice (40-50 g body weight) and lean C57BL/6 mice (Taconic, Hudson, N.Y.) were used for the chronic obesity efficacy studies. The DIO mice were group housed and fed a high fat diet (60% fat by kcal) by the vendor from the time of weaning. Upon receipt at the GlaxoSmithKline Research Triangle Park facility, all mice were single-housed and maintained at constant temperature (approximately 22° C.) with 12 hr light/dark cycle (lights on from 5:00 AM to 5:00 PM). The mice were given ad libitum access to food (Research Diets D12451, 45 kcal % fat for DIO; Lab Diet 5001, 13.5 kcal % fat for lean) and water. All animal protocols were approved by the institutional animal care and use committee at GlaxoSmithKline in Research Triangle Park, N.C. The BCE, OFS, pectin, oleic acid, Nutella containing chows were prepared by mixing in a Hobart mixer with a whisk attachment and stored at 4° C. until used. Chows were fed to mice in glass jars with wire mesh column inserts (Unifab Corp., Kalamazoo, Mich.). […] All combination then were evaluated with and without co-treatment with exendin-4-albudAb. […] Body weights (BW) were measured on day −7 and then every 3 to 4 days for the duration of the study. On day 24, body composition was measured using quantitative magnetic resonance (QMR). […]
compound,measurement,setting,value
CCCCCCCC/C=C\CCCCCCCC(=O)O [oleic acid],weight loss (% change in body weight),26 days,−4.3%
same,effect on weight compared to vehicle,Student's t-test,statistically significant weight loss
